Counter-ions that a name gives are not always drawn.
Assays:
[1] = target: T1, RARalpha (Homo sapiens, UniProt P10276); assay: Transactivation test (Kdapp), RARalpha; assay type: cell-based; settings: HeLa stable transfectants, luciferase reporter, crossed curves against reference agonist, Schild regression
T1 sequence (P10276 183-417 limits assumed): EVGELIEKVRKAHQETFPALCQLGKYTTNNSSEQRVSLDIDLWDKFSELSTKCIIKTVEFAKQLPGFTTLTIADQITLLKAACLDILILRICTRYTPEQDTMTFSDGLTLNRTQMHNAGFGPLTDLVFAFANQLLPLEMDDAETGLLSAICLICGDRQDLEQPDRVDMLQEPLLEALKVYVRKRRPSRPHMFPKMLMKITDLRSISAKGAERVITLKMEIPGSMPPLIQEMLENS
Procedure: (§1) The activation of receptors with an agonist (activator) in HeLa cells leads to the expression of a reporter gene, luciferase, which, in the presence of a substrate, generates light. The activation of the receptors may thus be measured by quantifying the luminescence produced after incubating the cells in the presence of a reference agonist. The inhibitory products displace the agonist from its site, thus preventing activation of the receptor. The activity is measured by quantifying the reduction in light produced. This measurement makes it possible to determine the inhibitory activity of the compounds according to the invention.
(§2) In this study, a constant is determined which is the affinity of the molecule for the receptor. Since this value can fluctuate depending on the basal activity and the expression of the receptor, it is referred to as the Kd apparent (KdApp).
(§3) To determine this constant, “crossed curves” of the test product against a reference agonist, 4-[2-(5,5,8,8-tetramethyl-5,6,7,8-tetrahydro-2-naphthyl)propenyl]benzoic acid, are performed in 96-well plates. The test product is used at 10 concentrations and the reference agonist at 7 concentrations. In each well, the cells are in contact with a concentration of the test product and a concentration of the reference agonist, 4-[2-(5,5,8,8-tetramethyl-5,6,7,8-tetrahydro-2-naphthyl)propenyl]benzoic acid. Measurements are also taken for the total agonist (4-[2-(5,5,8,8-tetramethyl-5,6,7,8-tetrahydro-2-naphthyl)propenyl]benzoic acid) and inverse agonist, 4-{(E)-3-[4-(4-tert-butylphenyl)-5,5,8,8-tetramethyl-5,6,7,8-tetrahydro-2-naphthyl]-3-oxopropenyl}benzoic acid, controls.
(§4) The HeLa cell lines used are stable transfectants containing the plasmids ERE-βGlob-Luc-SV-Neo (reporter gene) and RAR (α, β, γ) ER-DBD-puro. These cells are inoculated into 96-well plates at a rate of 10,000 cells per well in 100 μl of DMEM medium without phenol red, and supplemented with 10% defatted calf serum. The plates are then incubated at 37° C. and 7% CO2 for 4 hours.
(§5) The plates are then incubated for 18 hours at 37° C. and 7% CO2.
(§6) The culture medium is removed by turning over and 100 μl of a 1:1 PBS/luciferine mixture is added to each well. After 5 minutes, the plates are read using the luminescence reader.

[2] = target: T2, RARbeta (Homo sapiens, UniProt P10826); assay: Transactivation test (Kdapp), RARbeta; assay type: cell-based; settings: HeLa stable transfectants, luciferase reporter, crossed curves against reference agonist, Schild regression
T2 sequence (P10826 183-417 limits assumed): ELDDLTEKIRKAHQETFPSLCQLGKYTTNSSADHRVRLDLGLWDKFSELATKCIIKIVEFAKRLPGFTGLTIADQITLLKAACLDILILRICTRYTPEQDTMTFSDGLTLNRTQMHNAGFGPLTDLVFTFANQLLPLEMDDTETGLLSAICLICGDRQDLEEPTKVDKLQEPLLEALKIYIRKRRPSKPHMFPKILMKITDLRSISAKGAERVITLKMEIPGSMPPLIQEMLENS
Procedure: as §1, §2, §3, §4, §5, §6

Structure (SMILES)	Kd [1]	Kd [2]	Kd ([1]; hydrochloride)	Kd ([2]; hydrochloride)
CCN(C(C)=O)c1ccc(-c2cc(-c3ccc(C(=O)O)cc3)ccc2OCCCCO)cc1C(C)(C)C [Example 5, 4″-(acetylethylamino)-3″-tert-butyl-4′-(4-hydroxybutoxy)-[1,1′;3′,1″]terphenyl-4-carboxylic acid]	8 nM	8 nM		
CCc1cc(-c2cc(-c3ccc(C(=O)O)cc3)ccc2OCCO)ccc1N(CC)CC [Example 13, 4″-diethylamino-3″-ethyl-4′-(2-hydroxyethoxy)-[1,1′;3′,1″]terphenyl-4-carboxylic acid]	500 nM	4 nM		
CCN(CC)c1ccc(-c2cc(-c3ccc(C(=O)O)cc3)ccc2OCCCO)cc1C [Example 17, 4″-diethylamino-4′-(3-hydroxypropoxy)-3″-methyl[1,1′;3′,1″]terphenyl-4-carboxylic acid]	250 nM	8 nM		
CCN(CC)c1ccc(-c2cc(-c3ccc(C(=O)O)cc3)ccc2CCCO)cc1C(C)(C)C [Example 33, 3″-tert-butyl-4″-diethylamino-4′-(3-hydroxypropyl)-[1,1′;3′,1″]terphenyl-4-carboxylic acid]	60 nM	8 nM		
CCN(CC)c1ccc(-c2cc(-c3ccc(C(=O)O)cc3)ccc2CC(O)CO)cc1C(C)(C)C (centres unmarked) [Example 35, 3″-tert-butyl-4″-diethylamino-4′-(2,3-dihydroxypropyl)-[1,1′;3′,1″]terphenyl-4-carboxylic acid]	4000 nM	500 nM		
CCN(C(C)=O)c1ccc(-c2cc(-c3ccc(C(=O)O)cc3)ccc2CCCO)cc1C(C)(C)C [Example 37, 4″-(acetylethylamino)-3″-tert-butyl-4′-(3-hydroxypropyl)-[1,1′;3′,1″]terphenyl-4-carboxylic acid]	250 nM	120 nM		
CCN(C(C)=O)c1ccc(-c2cc(-c3ccc(C(=O)O)cc3)ccc2CCCNC2CC2)cc1C(C)(C)C [Example 47, 4″-(acetylethylamino)-3″-tert-butyl-4′(3-cyclopropylaminopropyl)[1,1′;3′,1″]terphenyl-4-carboxylic acid]		250 nM		
CCN(CC)c1ccc(-c2cc(-c3ccc(C(=O)O)cc3)ccc2CCCO)cc1C(C)(C)C [Example 52, [3″-tert-butyl-4-carboxy-4′-(3-hydroxypropyl)-[1,1′;3′,1″]terphenyl-4″-yl]diethylamine hydrochloride]			30 nM	2 nM
CCNc1ccc(-c2cc(-c3ccc(C(=O)O)cc3)ccc2OCCCO)cc1C(C)(C)C [Example 54, 3″-tert-butyl-4″-ethylamino-4′-(3-hydroxypropoxy)-[1,1′;3′,1″]terphenyl-4-carboxylic acid]	8 nM	4 nM		

— patent publication US8470871B2, “Ligands that modulate RAR receptors” (Galderma Research & Development, priority 2004, dated 2013)
